We go through 10 molecules from ChEMBL document CHEMBL5291721, “A preclinical secondary pharmacology resource illuminates target-adverse drug reaction associations of marketed drugs” (Nat Commun, 2023).

Some targets named below: Adenosine receptor A2a (Homo sapiens, UniProt P29274); Vasopressin V1a receptor (Homo sapiens, UniProt P37288); Melanocortin receptor 3 (Homo sapiens, UniProt P41968).
Experiment [1] addresses T1, Alpha-2A adrenergic receptor (Homo sapiens, UniProt P08913).
T1 sequence (P08913 whole entry): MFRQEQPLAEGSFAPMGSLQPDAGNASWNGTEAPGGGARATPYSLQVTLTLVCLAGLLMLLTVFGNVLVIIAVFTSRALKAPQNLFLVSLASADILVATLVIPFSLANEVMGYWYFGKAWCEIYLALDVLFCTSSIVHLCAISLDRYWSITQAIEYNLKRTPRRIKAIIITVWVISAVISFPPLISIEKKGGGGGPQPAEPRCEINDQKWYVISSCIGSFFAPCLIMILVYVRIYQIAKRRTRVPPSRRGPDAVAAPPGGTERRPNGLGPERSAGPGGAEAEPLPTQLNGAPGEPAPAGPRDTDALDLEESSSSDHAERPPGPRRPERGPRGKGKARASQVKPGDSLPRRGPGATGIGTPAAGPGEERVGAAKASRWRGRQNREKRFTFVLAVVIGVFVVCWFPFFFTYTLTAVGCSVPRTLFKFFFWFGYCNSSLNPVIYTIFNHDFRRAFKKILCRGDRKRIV
The format is functional, cell-based.

Experiment [2] concerns the target T2, Muscarinic acetylcholine receptor M2 (Homo sapiens, UniProt P08172).
T2 sequence (P08172 whole entry): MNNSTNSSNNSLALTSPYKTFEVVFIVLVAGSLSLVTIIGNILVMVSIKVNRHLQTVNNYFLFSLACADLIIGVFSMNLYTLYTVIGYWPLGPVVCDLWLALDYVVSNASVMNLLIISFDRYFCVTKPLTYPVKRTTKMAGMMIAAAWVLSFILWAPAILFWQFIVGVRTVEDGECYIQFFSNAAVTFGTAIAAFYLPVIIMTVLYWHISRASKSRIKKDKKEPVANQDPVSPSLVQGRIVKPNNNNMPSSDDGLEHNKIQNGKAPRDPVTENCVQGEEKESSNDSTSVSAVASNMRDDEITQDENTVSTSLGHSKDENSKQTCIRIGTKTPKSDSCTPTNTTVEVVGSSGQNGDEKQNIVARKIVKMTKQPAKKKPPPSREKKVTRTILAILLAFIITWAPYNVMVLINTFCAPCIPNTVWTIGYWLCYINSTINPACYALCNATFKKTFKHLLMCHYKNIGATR
The format is functional, cell-based.

The next experiment concerns the target D(1A) dopamine receptor (Homo sapiens, UniProt P21728). The format is functional, cell-based.
Experiment [3] has as its target Growth hormone secretagogue receptor type 1 (Homo sapiens, UniProt Q92847).
Experiment [4] deals with T3, 5-hydroxytryptamine receptor 1A (Homo sapiens, UniProt P08908).
T3 sequence (P08908 whole entry): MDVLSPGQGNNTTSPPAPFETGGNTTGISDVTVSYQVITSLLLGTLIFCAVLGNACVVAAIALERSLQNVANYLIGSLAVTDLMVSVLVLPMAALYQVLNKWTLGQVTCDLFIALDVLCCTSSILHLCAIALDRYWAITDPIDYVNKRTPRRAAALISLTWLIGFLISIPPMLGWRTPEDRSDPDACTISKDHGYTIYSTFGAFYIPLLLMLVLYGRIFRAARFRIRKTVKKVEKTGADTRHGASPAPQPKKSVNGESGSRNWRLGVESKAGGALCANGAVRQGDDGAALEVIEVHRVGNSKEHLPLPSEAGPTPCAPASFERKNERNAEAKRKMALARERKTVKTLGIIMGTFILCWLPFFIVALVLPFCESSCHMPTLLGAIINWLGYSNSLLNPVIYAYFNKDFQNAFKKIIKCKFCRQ
The format is functional, cell-based.

In experiment [5] the target is 5-hydroxytryptamine receptor 2B (Homo sapiens, UniProt P41595). The format is functional, cell-based.
For experiment [6], the target named is T4, Neuropeptide Y receptor type 1 (Homo sapiens, UniProt P25929).
T4 sequence (P25929 whole entry): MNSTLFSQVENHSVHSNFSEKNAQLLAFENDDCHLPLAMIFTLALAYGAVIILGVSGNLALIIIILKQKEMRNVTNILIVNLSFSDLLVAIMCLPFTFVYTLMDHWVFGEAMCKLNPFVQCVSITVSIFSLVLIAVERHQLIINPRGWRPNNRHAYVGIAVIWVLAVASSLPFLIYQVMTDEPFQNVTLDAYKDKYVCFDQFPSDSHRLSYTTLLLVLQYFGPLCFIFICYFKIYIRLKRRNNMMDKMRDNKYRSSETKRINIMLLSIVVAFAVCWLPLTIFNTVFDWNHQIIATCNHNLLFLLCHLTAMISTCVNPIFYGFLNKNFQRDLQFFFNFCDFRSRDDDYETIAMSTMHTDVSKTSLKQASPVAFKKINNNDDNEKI

Experiment [7] concerns the target T5, Amine oxidase [flavin-containing] A (Homo sapiens, UniProt P21397).
T5 sequence (P21397 whole entry): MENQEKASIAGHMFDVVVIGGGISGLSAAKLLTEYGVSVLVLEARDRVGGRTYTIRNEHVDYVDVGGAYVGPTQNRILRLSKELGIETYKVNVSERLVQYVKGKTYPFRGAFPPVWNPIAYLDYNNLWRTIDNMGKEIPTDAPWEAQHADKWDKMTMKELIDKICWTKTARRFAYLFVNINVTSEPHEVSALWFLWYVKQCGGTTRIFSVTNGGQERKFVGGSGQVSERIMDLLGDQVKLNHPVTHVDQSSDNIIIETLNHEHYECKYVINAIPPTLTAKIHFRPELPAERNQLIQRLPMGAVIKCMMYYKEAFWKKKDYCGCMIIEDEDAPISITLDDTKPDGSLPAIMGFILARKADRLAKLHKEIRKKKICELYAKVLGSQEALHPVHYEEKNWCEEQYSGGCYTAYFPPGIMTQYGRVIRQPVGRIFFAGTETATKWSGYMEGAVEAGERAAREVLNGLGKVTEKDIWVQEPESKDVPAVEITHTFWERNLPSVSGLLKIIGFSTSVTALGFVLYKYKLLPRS
The format is functional.

Experiment [8] concerns the target cGMP-inhibited 3',5'-cyclic phosphodiesterase 3A (Homo sapiens, UniProt Q14432). The format is functional.

SMILES strings stand for the structures.
Also: assay procedure not described here.

Sequence of Adenosine receptor A2a (P29274 whole entry): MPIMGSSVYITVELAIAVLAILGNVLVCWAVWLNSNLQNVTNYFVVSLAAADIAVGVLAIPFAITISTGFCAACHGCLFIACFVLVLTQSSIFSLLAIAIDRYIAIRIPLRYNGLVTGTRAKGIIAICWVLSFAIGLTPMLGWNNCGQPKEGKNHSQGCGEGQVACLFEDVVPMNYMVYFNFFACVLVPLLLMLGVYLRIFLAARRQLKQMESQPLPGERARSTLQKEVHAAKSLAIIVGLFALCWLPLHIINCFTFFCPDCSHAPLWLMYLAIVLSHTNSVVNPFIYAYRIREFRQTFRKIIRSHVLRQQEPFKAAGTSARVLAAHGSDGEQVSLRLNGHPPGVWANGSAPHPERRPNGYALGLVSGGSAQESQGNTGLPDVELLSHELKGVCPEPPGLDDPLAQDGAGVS
Sequence of D(1A) dopamine receptor (P21728 whole entry): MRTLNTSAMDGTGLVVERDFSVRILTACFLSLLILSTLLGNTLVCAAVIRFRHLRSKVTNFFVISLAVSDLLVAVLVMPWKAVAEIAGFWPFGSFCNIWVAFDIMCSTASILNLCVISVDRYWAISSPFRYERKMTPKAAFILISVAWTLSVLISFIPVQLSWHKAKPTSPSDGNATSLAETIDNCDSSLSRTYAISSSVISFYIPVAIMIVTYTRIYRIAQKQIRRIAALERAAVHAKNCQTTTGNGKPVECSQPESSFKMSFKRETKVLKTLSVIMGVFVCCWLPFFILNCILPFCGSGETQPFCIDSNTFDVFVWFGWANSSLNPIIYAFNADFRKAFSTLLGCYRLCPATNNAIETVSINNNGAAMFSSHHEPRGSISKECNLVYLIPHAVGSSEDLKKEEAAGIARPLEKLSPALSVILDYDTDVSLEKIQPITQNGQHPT
Sequence of Growth hormone secretagogue receptor type 1 (Q92847 whole entry): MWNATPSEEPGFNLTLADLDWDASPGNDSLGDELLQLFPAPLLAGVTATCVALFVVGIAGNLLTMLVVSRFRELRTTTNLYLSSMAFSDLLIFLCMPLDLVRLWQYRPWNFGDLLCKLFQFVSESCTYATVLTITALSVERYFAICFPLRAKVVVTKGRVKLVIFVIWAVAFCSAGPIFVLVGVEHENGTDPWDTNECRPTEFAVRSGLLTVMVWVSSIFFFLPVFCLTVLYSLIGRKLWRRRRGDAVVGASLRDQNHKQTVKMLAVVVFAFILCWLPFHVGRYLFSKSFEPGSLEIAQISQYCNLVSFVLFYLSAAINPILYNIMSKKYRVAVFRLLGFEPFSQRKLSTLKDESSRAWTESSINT
Sequence of cGMP-inhibited 3',5'-cyclic phosphodiesterase 3A (Q14432 whole entry): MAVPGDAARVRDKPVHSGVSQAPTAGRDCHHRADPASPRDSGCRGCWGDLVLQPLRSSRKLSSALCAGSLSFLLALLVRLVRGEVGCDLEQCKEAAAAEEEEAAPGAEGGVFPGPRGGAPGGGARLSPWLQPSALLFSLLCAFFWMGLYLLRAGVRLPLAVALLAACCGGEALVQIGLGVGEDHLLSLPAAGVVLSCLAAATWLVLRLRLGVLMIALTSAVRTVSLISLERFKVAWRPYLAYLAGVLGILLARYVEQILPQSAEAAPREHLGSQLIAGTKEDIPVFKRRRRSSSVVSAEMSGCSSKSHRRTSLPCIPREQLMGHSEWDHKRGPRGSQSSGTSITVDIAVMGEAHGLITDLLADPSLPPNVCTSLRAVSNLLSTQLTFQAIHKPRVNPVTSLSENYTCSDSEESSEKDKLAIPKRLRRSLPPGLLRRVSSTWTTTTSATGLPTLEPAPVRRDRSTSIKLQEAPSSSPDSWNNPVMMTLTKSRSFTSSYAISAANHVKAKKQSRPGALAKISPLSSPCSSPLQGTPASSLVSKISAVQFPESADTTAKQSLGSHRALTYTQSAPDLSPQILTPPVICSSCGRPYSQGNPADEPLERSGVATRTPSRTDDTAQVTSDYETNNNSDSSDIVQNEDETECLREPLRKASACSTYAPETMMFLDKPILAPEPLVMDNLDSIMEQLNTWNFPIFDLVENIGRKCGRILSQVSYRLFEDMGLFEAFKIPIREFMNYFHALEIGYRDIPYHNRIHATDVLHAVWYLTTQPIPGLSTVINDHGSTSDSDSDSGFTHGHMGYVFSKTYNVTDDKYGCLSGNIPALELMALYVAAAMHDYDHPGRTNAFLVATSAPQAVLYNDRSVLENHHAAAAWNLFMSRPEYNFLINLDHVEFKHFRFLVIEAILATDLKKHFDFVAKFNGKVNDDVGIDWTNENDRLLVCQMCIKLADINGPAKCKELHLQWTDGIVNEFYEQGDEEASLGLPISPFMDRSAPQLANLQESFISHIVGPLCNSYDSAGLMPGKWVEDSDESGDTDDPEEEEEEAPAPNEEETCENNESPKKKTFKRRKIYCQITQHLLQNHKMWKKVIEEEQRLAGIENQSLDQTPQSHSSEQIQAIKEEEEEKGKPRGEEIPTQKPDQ
Sequence of Melanocortin receptor 3 (P41968 whole entry): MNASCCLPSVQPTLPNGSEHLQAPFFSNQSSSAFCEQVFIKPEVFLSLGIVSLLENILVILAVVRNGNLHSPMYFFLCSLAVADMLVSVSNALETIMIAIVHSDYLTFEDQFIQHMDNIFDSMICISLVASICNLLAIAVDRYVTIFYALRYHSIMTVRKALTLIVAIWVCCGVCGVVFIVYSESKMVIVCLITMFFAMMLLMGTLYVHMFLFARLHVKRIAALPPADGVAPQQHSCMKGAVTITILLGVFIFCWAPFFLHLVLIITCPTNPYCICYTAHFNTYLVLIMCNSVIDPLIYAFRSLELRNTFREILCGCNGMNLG
Sequence of Vasopressin V1a receptor (P37288 whole entry): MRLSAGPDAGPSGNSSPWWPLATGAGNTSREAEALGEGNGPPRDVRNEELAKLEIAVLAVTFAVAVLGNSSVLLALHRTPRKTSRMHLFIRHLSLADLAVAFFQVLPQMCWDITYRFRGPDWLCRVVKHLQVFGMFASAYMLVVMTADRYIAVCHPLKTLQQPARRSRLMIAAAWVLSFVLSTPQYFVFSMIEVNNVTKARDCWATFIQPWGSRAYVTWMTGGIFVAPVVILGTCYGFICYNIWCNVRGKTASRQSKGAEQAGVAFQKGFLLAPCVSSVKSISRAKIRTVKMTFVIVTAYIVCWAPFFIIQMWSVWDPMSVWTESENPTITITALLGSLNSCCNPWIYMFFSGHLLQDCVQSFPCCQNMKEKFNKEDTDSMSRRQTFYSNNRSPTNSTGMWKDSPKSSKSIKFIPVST
Sequence of 5-hydroxytryptamine receptor 2B (P41595 whole entry): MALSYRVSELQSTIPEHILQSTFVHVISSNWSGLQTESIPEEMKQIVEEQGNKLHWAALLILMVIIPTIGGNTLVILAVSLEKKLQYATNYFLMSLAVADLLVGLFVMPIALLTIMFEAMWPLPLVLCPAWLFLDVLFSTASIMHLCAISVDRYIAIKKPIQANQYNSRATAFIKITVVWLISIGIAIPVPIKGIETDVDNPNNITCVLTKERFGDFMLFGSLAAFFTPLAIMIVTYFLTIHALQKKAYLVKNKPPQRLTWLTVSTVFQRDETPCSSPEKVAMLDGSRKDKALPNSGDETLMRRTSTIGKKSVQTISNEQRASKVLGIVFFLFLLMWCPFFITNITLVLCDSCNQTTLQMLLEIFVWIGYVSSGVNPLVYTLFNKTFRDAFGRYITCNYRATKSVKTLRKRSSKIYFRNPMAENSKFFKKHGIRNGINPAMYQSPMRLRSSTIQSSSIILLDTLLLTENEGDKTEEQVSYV

For the molecule `COc1ccc(-n2nc(C(N)=O)c3c2C(=O)N(c2ccc(N4CCCCC4=O)cc2)CC3)cc1` [APIXABAN], the AC50 (on Adenosine receptor A2a; in experiment [1]; at Vasopressin V1a receptor; in experiment [2]; on D(1A) dopamine receptor; in experiment [3]) was over 30 µM in each case. Also, the AC50 (in experiment [4]; in experiment [5]; at Melanocortin receptor 3; in experiment [6]; in experiment [7]; in experiment [8]) was over 30 µM in each case.

On to `CC1=C(/C=C/C(C)=C/C=C/C(C)=C/C(=O)Oc2c(C)c(C)c3c(c2C)CCC(C)(CCCC(C)CCCC(C)CCCC(C)C)O3)C(C)(C)CCC1` (stereo not given) [TRETINOIN TOCOFERIL], for which the AC50 (at Adenosine receptor A2a; in experiment [1]; on Vasopressin V1a receptor; in experiment [2]; at D(1A) dopamine receptor; in experiment [3]) was over 30 µM throughout. Besides, the AC50 (in [4]; in experiment [5]; at Melanocortin receptor 3; in [6]; in [7]; in experiment [8]) was over 30 µM throughout.

Consider `CCN(CC)Cc1nccn1-c1ccc([N+](=O)[O-])cc1C(=O)c1ccccc1Cl` [NIZOFENONE], for which the AC50 (on Adenosine receptor A2a; in experiment [1]; at Vasopressin V1a receptor; in experiment [2]; on D(1A) dopamine receptor; in experiment [3]) was over 30 µM in each case. Also, the AC50 (in experiment [4]; in experiment [5]; on Melanocortin receptor 3; in [6]; in experiment [7]; in experiment [8]) was over 30 µM in each case.

`CCCCCCCC(=O)CC[C@@H]1[C@@H](C/C=C\CCCC(=O)O)[C@@H](O)C[C@H]1O` [UNOPROSTONE]: the AC50 (on Adenosine receptor A2a; in [1]; on Vasopressin V1a receptor; in [2]; on D(1A) dopamine receptor; in [3]) was over 30 µM in each case. The AC50 (in [4]; in experiment [5]; on Melanocortin receptor 3; in experiment [6]; in experiment [7]; in experiment [8]) was over 30 µM each time.

Take `CC(=O)OCC1=C(C(=O)O)N2C(=O)[C@@H](NC(=O)Cc3cccs3)[C@H]2SC1` [CEPHALOTHIN]: the AC50 (at Adenosine receptor A2a; in experiment [1]; on Vasopressin V1a receptor; in experiment [2]; at D(1A) dopamine receptor; in experiment [3]) was over 30 µM each time. Also, the AC50 (in experiment [4]; in [5]; on Melanocortin receptor 3; in [6]; in experiment [7]; in experiment [8]) was over 30 µM throughout.

Turning to `CCC(=O)O[C@H](CC(=O)O)C[N+](C)(C)C` [LEVOCARNITINE PROPIONATE], the AC50 (on Adenosine receptor A2a; in experiment [1]; on Vasopressin V1a receptor; in [2]; at D(1A) dopamine receptor; in [3]) was over 30 µM each time. Besides, the AC50 (in experiment [4]; in experiment [5]; at Melanocortin receptor 3; in [6]; in experiment [7]; in experiment [8]) was over 30 µM in each case.

As for `O=C(O)c1ccc2nc(-c3cc(Cl)cc(Cl)c3)oc2c1`, the AC50 on Adenosine receptor A2a is over 30 µM; in experiment [1], over 30 µM; at Vasopressin V1a receptor, over 30 µM; in [2], over 30 µM; at D(1A) dopamine receptor, 12 µM; in [3], over 30 µM. The AC50 in [4] is over 30 µM; in experiment [5], over 30 µM; at Melanocortin receptor 3, over 30 µM; in [6] it was over 30 µM; in [7], 18 µM; in experiment [8], 24 µM.

Take `CN1CCCN=C1/C=C/c1cccc(O)c1` [OXANTEL]: the AC50 (on Adenosine receptor A2a; in experiment [1]; at Vasopressin V1a receptor; in experiment [2]; on D(1A) dopamine receptor; in [3]) was over 30 µM in each case. Further, the AC50 is over 30 µM in experiment [4]; over 30 µM in experiment [5]; over 30 µM at Melanocortin receptor 3; over 30 µM in experiment [6]; 21 µM in experiment [7]; over 30 µM in experiment [8].

`COC(=O)c1ccc2c(c1)NC(=O)/C2=C(\Nc1ccc(N(C)C(=O)CN2CCN(C)CC2)cc1)c1ccccc1` [NINTEDANIB]: the AC50 on Adenosine receptor A2a is 21 µM; in experiment [1], over 30 µM; at Vasopressin V1a receptor, over 30 µM; in [2], over 30 µM; on D(1A) dopamine receptor, over 30 µM; in experiment [3], over 30 µM. The AC50 (in experiment [4]; in experiment [5]; at Melanocortin receptor 3; in experiment [6]; in [7]; in experiment [8]) was over 30 µM in each case.

Turning to `CO/N=C(\C(=O)N[C@@H]1C(=O)N2C(C(=O)O)=C(CSc3nc(C)c(CC(=O)O)s3)CS[C@H]12)c1csc(N)n1` [CEFODIZIME], the AC50 (on Adenosine receptor A2a; in experiment [1]; at Vasopressin V1a receptor; in [2]; at D(1A) dopamine receptor; in [3]) was over 30 µM throughout. The AC50 (in experiment [4]; in experiment [5]; on Melanocortin receptor 3; in [6]; in experiment [7]; in experiment [8]) was over 30 µM in each case.

In general, AC50 refers to the midpoint of the concentration-response curve, whichever way the signal moves. A higher AC50 goes with activity only at high concentration.
